One experiment relates to A-375. Description: Antiproliferative activity against A375 cells. The note with it: Homo sapiens. Type of experiment: functional, cell-based.
Another experiment deals with HCT-116. Nature of the experiment: Antiproliferative activity against HCT116 cells. Type of experiment: functional, cell-based. The note with it: Homo sapiens.
Experiment [1] relates to HeLa. Description: Antiproliferative activity against HeLa cells. Type of experiment: functional, cell-based. Conditions: Homo sapiens.
Experiment [2] deals with Vascular endothelial growth factor receptor 2 (Homo sapiens, UniProt P35968). Nature of the experiment: Inhibition of VEGFR2.
The test system of experiment [3] is HeLa. Nature of the experiment: Cell cycle arrest in human HeLa cells by accumulation at S phase at 62.5 nM. Type of experiment: functional.
For experiment [4], the system named is HeLa. Nature of the experiment: Cell cycle arrest by accumulation at G2 phase in human HeLa cells at 62.5 nM. Type of experiment: functional.
Experiment [5] relates to HeLa. Description: Cell cycle arrest in human HeLa cells by accumulation at G1 phase at 62.5 nM. Type of experiment: functional.

Sequence of Vascular endothelial growth factor receptor 2 (P35968 whole entry): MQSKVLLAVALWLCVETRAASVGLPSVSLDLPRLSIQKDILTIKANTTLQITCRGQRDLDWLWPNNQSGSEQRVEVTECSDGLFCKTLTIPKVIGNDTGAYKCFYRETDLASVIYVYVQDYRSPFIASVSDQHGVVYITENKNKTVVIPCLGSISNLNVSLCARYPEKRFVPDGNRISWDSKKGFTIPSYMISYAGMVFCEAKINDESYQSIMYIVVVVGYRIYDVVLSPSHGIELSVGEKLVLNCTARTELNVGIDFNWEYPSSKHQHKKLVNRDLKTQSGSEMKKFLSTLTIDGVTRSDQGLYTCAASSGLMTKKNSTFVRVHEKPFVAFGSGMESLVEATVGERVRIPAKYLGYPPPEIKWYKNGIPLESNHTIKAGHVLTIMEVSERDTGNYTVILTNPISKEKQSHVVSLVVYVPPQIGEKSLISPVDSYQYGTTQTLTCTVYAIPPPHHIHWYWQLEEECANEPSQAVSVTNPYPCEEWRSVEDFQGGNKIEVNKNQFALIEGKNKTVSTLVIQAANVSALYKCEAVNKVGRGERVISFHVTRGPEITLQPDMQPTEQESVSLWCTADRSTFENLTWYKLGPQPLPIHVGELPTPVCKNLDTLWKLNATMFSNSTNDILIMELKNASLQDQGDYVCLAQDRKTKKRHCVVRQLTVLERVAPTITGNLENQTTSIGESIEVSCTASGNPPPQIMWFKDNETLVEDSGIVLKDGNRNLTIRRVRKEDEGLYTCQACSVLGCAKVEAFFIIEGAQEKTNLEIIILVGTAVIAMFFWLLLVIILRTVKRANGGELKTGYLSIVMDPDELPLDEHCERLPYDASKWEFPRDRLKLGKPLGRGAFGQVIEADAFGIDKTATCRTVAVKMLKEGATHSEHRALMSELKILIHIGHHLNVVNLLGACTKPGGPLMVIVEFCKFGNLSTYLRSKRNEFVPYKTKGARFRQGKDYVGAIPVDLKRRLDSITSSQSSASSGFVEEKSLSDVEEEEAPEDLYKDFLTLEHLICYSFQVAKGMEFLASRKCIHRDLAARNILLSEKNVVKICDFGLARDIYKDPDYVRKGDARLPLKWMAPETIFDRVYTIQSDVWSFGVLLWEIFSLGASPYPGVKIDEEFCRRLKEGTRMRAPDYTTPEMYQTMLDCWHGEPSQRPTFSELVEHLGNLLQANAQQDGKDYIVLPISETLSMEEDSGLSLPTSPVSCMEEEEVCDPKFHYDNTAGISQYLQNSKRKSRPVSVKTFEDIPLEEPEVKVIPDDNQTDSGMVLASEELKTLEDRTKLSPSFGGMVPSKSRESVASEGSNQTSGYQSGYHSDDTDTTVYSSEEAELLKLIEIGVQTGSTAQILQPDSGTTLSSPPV

In the case of `Cc1cc2c(F)c(Oc3ncnc(N)c3/C=N/OCC3CCCCC3)ccc2[nH]1`, the IC50 in the experiment on A-375 was 4920 nM; with HCT-116, 16100 nM; with HeLa [1], 22700 nM.
Turning to `CO/N=C/c1c(N)ncnc1Oc1ccc2c(ccn2C)c1`, the IC50 with A-375 worked out at 326 nM; with HCT-116, 749 nM; in the experiment with HeLa [1], 375 nM.
Taken in the same sequence, the figures for `CO/N=C/c1c(N)ncnc1Oc1ccc2cccnc2c1` were 886 nM, 2620 nM and 1820 nM.
As for `COCCO/N=C/c1c(N)ncnc1Oc1ccc2[nH]c(C)cc2c1F`, the IC50 in the experiment on A-375 amounted to 233 nM; in the experiment with HCT-116, 387 nM; with HeLa [1], 308 nM.
The matching figures for `CO/N=C/c1c(N)ncnc1Oc1ccc2ncccc2c1`: 1820 nM, 2870 nM and 3430 nM.
The matching figures for `Cc1cc2c(F)c(Oc3ncnc(N)c3/C=N/OCCO)ccc2[nH]1`: 372 nM, 323 nM and 406 nM.
Taken in the same sequence, the figures for `COCCCO/N=C/c1c(N)ncnc1Oc1ccc2[nH]c(C)cc2c1F` were 300 nM, 438 nM and 346 nM.
As to `Cc1cc2c(F)c(Oc3ncnc(N)c3/C=N/O)ccc2[nH]1`, the IC50 in the experiment on A-375 was 492 nM; with HCT-116, 1140 nM; in the experiment with HeLa [1], 472 nM; in experiment [2] it was 33 nM.
`C=CCO/N=C/c1c(N)ncnc1Oc1ccc2[nH]c(C)cc2c1F`: the Activity in the experiment with HeLa [3] stood at 0%; with HeLa [4], 99.76%; in the experiment with HeLa [5], 0.24%. In addition, the IC50 with A-375 stood at 21 nM; with HCT-116 it was 40 nM; in the experiment with HeLa [1], 42 nM.
Turning to `Cc1cc2c(F)c(Oc3ncnc(N)c3/C=N/OCCCO)ccc2[nH]1`, the IC50 is 336 nM in the experiment on A-375, 452 nM in the experiment with HCT-116 and 362 nM with HeLa [1].
Consider `Cc1cc2c(F)c(Oc3ncnc(N)c3/C=N/OCCN3CCCC3)ccc2[nH]1`, for which the IC50 in the experiment on A-375 was determined as 2160 nM; in the experiment on HCT-116, 4610 nM; with HeLa [1] it was 4220 nM.
The matching figures for `CO/N=C/c1c(N)ncnc1Oc1ccc2[nH]c(C)cc2c1`: 356 nM, 386 nM and 388 nM.
The matching figures for `CO/N=C/c1c(N)ncnc1Oc1ccc2[nH]cc(C)c2c1`: 132 nM, 385 nM and 306 nM.
Taken in the same sequence, the figures for `CNCCO/N=C/c1c(N)ncnc1Oc1ccc2[nH]c(C)cc2c1F` were 345 nM, 3010 nM and 2010 nM.
For `CO/N=C/c1c(N)ncnc1Oc1cc2cc[nH]c2cc1F`, the IC50 in the experiment on A-375 is 327 nM; in the experiment on HCT-116 it was 422 nM; with HeLa [1], 382 nM.
Taken in the same sequence, the figures for `CCO/N=C/c1c(N)ncnc1Oc1ccc2[nH]c(C)cc2c1F` were 27 nM, 36 nM and 32 nM.
Regarding `CCCCO/N=C/c1c(N)ncnc1Oc1ccc2[nH]c(C)cc2c1F`, the IC50 in the experiment on A-375 amounted to 446 nM; in the experiment on HCT-116, 1000 nM; in the experiment with HeLa [1] it was 607 nM.
Taken in the same sequence, the figures for `CO/N=C/c1c(N)ncnc1Oc1ccc2[nH]ccc2c1F` were 492 nM, 365 nM and 401 nM.
Taken in the same sequence, the figures for `CO/N=C/c1c(N)ncnc1Oc1ccc2[nH]ccc2c1` were 783 nM, 3520 nM and 1870 nM.
As to `CCCO/N=C/c1c(N)ncnc1Oc1ccc2[nH]c(C)cc2c1F`, the values for the IC50 with A-375, with HCT-116 and in the experiment on HeLa [1] were 28 nM, 30 nM and 40 nM, respectively.
Taken in the same sequence, the figures for `Cc1cc2c(F)c(Oc3ncnc(N)c3/C=N/OCc3ccccc3)ccc2[nH]1` were 62 nM, 311 nM and 266 nM.
